Test results as given in patent US20260297085A1, “1 H-PYRROLO[2,3-B]PYRIDIN-4-YL]-2-OXOPYRROLIDINE-3-CARBONITRILE DERIVATIVES AS TYROSINE KINASE 2 (TYK2) INHIBITORS FOR THE TREATMENT OF INFLAMMATORY DISEASES” (BIOGEN MA INC., priority 2023, published 2026).
Where a name gives a salt, the structure may show the parent alone.

Tests used:
[1] = target: T1, human TYK2 kinase domain (JH1) (Homo sapiens, UniProt P29597); test: JH1 biochemical assay for TYK2 (ADP-Glo kinase assay, recombinant JH1 catalytic domain, JAK3-974 peptide, 10 μM ATP)
T1 construct: recombinantly generated catalytic kinase (also known as JH1) domain of human JAK1, JAK2, JAK3 and TYK2
T1 sequence (P29597 897-1176 limits assumed): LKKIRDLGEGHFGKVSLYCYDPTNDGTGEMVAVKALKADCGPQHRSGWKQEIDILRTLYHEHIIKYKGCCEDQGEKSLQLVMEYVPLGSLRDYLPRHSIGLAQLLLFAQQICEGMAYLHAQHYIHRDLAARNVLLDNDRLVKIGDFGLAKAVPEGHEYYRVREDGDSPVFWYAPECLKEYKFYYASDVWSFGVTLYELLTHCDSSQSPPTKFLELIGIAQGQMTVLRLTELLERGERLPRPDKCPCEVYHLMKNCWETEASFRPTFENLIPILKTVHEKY
Procedure, shortened: (§1)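 Compounds were titrated in 11 points of 3-fold dilution starting at 10 μM or 1 μM. Enzyme (JAK1 4 nM, JAK2 0.2 nM, JAK3 0.3 nM, TYK2 2 nM) and 50 μM peptide reacted for 100 minutes, followed by ADP-to-luminescence detection; IC50 by 4-parameter fit.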

[2] = target: T2, human JAK1 kinase domain (JH1) (Homo sapiens, UniProt P23458); test: JH1 biochemical assay for JAK1 (ADP-Glo kinase assay, recombinant JH1 catalytic domain, JAK3-342 peptide, 35 μM ATP)
T2 construct: recombinantly generated catalytic kinase (also known as JH1) domain of human JAK1, JAK2, JAK3 and TYK2
T2 sequence (P23458 875-1153 limits assumed): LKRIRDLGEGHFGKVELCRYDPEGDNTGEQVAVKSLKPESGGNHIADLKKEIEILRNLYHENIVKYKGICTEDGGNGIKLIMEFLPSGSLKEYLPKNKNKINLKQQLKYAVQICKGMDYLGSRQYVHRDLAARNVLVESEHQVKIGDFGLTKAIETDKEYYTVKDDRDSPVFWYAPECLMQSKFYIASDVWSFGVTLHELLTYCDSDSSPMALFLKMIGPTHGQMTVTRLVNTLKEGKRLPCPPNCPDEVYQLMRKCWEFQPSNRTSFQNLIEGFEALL
Procedure, shortened: as §1

[3] = target: T3, human JAK2 kinase domain (JH1) (Homo sapiens, UniProt O60674); test: JH1 biochemical assay for JAK2 (ADP-Glo kinase assay, recombinant JH1 catalytic domain, JAK3-974 peptide, 15 μM ATP)
T3 construct: recombinantly generated catalytic kinase (also known as JH1) domain of human JAK1, JAK2, JAK3 and TYK2
T3 sequence (O60674 849-1124 limits assumed): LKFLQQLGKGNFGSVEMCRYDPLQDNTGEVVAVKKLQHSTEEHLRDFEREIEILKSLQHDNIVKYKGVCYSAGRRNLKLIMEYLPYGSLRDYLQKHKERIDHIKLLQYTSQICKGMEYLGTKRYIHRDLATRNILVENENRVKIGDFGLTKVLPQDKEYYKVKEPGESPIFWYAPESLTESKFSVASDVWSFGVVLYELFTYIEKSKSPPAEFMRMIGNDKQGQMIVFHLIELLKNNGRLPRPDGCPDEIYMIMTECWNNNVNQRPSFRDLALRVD
Procedure, shortened: as §1

[4] = target: T4, human JAK3 kinase domain (JH1) (Homo sapiens, UniProt P52333); test: JH1 biochemical assay for JAK3 (ADP-Glo kinase assay, recombinant JH1 catalytic domain, JAK3-974 peptide, 4 μM ATP)
T4 construct: recombinantly generated catalytic kinase (also known as JH1) domain of human JAK1, JAK2, JAK3 and TYK2
T4 sequence (P52333 822-1111 limits assumed): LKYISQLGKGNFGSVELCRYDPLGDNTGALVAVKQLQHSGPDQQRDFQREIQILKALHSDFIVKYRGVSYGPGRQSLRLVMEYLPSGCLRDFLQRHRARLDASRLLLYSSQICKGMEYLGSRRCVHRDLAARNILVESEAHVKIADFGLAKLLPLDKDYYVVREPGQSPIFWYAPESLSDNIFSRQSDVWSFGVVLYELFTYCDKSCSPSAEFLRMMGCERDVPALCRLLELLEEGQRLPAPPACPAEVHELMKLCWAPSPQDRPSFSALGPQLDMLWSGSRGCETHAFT
Procedure, shortened: as §1

[5] = target: Tyk2 kinase activity on STAT4 in NK92 cells (Homo sapiens, UniProt P29597); test: pSTAT4 cell assay (MSD; NK92 cells, 30 ng/mL IL2 stimulation); type: cell-based; conditions: 30 ng/mL IL2, 15 minutes
Tyk2 kinase activity on STAT4 in NK92 cells, sequence (P29597 whole entry): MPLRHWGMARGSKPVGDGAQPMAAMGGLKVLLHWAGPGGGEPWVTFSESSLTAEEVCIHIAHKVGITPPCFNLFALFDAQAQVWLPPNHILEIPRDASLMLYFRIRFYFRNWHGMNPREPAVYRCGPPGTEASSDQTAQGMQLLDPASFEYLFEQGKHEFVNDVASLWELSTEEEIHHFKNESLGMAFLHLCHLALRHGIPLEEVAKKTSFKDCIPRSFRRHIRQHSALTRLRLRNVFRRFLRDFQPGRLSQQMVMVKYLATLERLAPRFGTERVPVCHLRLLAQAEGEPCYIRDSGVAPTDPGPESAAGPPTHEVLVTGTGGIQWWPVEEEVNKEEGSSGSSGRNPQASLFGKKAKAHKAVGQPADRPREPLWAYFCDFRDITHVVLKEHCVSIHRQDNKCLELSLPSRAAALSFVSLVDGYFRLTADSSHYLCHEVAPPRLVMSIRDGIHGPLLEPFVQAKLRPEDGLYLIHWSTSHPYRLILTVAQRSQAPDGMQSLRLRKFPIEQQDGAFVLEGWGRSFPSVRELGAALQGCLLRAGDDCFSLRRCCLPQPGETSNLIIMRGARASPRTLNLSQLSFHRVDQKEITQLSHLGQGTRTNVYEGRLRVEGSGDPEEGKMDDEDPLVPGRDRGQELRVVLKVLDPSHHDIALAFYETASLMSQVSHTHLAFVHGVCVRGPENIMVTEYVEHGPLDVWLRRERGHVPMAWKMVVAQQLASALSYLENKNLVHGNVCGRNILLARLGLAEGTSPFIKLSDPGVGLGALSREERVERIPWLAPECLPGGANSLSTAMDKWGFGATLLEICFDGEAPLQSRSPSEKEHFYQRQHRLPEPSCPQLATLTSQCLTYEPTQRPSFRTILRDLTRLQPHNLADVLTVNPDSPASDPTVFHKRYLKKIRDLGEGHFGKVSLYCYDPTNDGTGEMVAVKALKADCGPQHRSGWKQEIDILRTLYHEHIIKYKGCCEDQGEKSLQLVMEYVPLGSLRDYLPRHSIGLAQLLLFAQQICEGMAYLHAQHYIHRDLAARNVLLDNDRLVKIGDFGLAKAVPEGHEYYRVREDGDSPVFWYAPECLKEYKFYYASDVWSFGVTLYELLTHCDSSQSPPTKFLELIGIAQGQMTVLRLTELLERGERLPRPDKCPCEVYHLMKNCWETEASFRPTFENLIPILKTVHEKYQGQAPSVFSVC
Protocol: The inhibitory potency of compounds of the disclosure against the Tyk2 kinase activity on STAT4 was evaluated using an MSD-platform plate-based assay format. NK92 cells natively expressing STAT4 and Tyk2 were serum-starved to reduce background phosphorylation levels, then cells were treated compounds for 1 hr with a 10-point four-fold dilution series starting at 10 μM. Cells were then stimulated with 30 ng/mL IL2 for 15 minutes. Cells were lysed and […] levels were quantitated using an MSD plate-based assay with anti-STAT4 antibodies. The data were normalized and the percent activity versus log concentration of compound were fitted with a 4-parameter logistic model to generate to generate IC50 curves.

[6] = target: JAK2 kinase activity on STAT5 in TF1 cells (Homo sapiens, UniProt O60674); test: pSTAT5 cell assay (MSD; TF1 cells, 30 ng/mL IL-3 stimulation); type: cell-based; conditions: 30 ng/mL IL-3, 15 minutes
JAK2 kinase activity on STAT5 in TF1 cells, sequence (O60674 whole entry): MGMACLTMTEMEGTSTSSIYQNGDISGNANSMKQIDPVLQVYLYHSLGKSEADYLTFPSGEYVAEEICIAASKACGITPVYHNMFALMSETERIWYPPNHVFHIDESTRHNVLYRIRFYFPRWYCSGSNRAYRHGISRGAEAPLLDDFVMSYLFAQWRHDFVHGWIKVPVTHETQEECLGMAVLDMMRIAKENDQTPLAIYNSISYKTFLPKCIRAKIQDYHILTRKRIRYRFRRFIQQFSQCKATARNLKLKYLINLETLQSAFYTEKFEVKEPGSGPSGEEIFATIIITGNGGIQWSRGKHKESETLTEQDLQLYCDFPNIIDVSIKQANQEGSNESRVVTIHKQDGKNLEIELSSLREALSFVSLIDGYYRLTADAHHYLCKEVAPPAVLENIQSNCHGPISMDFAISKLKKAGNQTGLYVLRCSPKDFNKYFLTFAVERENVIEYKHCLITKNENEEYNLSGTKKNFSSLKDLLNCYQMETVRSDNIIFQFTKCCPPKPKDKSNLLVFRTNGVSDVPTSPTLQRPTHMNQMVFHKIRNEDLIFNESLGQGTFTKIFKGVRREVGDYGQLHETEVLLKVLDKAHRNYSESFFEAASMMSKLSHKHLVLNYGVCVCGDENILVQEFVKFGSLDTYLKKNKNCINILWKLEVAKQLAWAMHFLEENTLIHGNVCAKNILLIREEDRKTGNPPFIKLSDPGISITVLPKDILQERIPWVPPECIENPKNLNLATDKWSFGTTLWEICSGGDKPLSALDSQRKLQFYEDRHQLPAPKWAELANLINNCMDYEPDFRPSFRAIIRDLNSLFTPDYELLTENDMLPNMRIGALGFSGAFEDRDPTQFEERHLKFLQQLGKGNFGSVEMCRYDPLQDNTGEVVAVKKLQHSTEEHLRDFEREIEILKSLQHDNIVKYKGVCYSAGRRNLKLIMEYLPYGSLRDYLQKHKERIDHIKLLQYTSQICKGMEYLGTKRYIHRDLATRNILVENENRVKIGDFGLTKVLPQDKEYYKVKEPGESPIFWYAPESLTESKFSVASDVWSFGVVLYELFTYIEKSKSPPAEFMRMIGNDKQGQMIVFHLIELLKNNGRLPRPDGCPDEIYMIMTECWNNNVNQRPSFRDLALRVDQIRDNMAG
Protocol: The inhibitory potency of compounds of the disclosure against the JAK2 kinase activity on STAT5 was evaluated using an MSD-platform plate-based assay format. TF1 cells natively expressing STAT5 and JAK2 were serum-starved to reduce background phosphorylation levels, then cells were treated with compounds of disclosure for 1 hour with a 10-point four-fold dilution series starting at 10 μM. Cells were then stimulated with 30 ng/mL IL-3 for 15 minutes. Cells were then lysed and pSTAT5 levels were quantitated using an MSD plate-based assay with anti-STAT5 antibodies. The data were normalized and the percent activity versus log concentration of compound was fitted with a 4-parameter logistic model to generate a curve and an IC50 value.

[7] = target: JAK1 kinase activity on STAT3 in TF1 cells (Homo sapiens, UniProt P23458); test: pSTAT3 cell assay (MSD; TF1 cells, 30 ng/mL IL-6 stimulation); type: cell-based; conditions: 30 ng/mL IL-6, 15 minutes
JAK1 kinase activity on STAT3 in TF1 cells, sequence (P23458 whole entry): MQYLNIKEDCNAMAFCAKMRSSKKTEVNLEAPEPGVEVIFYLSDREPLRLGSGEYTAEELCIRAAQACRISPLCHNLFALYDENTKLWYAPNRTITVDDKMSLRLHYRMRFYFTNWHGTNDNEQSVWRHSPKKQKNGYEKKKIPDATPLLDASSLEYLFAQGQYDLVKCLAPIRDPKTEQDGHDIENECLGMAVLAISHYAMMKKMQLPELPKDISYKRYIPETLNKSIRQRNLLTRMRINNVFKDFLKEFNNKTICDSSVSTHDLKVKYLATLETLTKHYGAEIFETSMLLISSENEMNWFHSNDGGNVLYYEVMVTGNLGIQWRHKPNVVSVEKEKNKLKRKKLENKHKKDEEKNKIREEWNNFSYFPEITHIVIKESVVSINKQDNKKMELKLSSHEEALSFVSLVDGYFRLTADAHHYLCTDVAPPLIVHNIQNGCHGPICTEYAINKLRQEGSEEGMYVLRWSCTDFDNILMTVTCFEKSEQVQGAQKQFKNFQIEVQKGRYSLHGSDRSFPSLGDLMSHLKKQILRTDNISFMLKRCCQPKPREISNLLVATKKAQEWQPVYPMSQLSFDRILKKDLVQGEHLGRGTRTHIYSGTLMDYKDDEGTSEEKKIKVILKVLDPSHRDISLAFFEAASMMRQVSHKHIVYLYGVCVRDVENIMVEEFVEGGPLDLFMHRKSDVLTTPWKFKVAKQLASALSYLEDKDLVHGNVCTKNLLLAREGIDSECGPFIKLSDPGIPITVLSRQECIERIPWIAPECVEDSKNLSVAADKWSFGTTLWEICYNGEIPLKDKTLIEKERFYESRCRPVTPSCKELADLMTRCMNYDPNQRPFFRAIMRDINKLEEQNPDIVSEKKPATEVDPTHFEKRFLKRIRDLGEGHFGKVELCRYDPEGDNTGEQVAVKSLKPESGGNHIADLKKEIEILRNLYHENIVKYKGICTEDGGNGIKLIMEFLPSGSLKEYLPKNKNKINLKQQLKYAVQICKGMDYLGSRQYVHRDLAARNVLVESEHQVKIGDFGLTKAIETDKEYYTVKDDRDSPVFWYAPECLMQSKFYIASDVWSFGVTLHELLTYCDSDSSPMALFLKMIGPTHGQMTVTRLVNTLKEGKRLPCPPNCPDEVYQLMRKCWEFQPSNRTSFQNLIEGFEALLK
Protocol: The inhibitory potency of compounds of the disclosure against the JAK1 kinase activity on STAT3 was evaluated using an MSD-platform plate-based assay format. TF1 cells natively expressing STAT3 and JAK1 were serum-starved to reduce background phosphorylation levels, then cells were treated with compounds of the disclosure for 1 hour with a 10-point four-fold dilution series starting at 10 μM. Cells were then stimulated with 30 ng/mL interleukin 6 (IL-6) for 15 minutes. Cells were lysed and pSTAT3 levels were quantitated using an MSD plate-based assay with anti-STAT3 antibodies. The data were normalized and the percent activity versus log concentration of compound was fitted with a 4-parameter logistic model to generate IC50 curves.

Compound	IC50 ([1]; JH1 kinase domain, ADP-Glo) [nM]	IC50 ([2]; JH1 kinase domain, ADP-Glo) [nM]	IC50 ([3]; JH1 kinase domain, ADP-Glo) [nM]	IC50 ([4]; JH1 kinase domain, ADP-Glo) [nM]	IC50 [5] [nM]	IC50 [6] [nM]	IC50 [7] [nM]	IC50 ([1]; TYK2 JH1, ADP-Glo) [nM]	IC50 ([2]; JAK1 JH1, ADP-Glo) [nM]	IC50 ([3]; JAK2 JH1, ADP-Glo) [nM]	IC50 ([4]; JAK3 JH1, ADP-Glo) [nM]
CC(C)n1cc(-c2cc3c(N4C[C@@H](C)[C@@](C#N)(C5CC5)C4=O)ccnn3c2)cn1 [Example 167, (3R,4S)-3-cyclopropyl-1-(6-(1-isopropyl-1H-pyrazol-4-yl)pyrrolo[1,2-b]pyridazin-4-yl)-4-methyl-2-oxopyrrolidine-3-carbonitrile]	< 5	< 100	< 100	< 100	20 to 50	1000 to 5000	100 to 1000				
C[C@@H]1CN(c2ccnn3cc(-n4ccnc4)cc23)C(=O)[C@]1(C#N)C1CC1 [Example 336, (3R,4S)-1-(6-(1H-imidazol-1-yl)pyrrolo[1,2-b]pyridazin-4-yl)-3-cyclopropyl-4-methyl-2-oxopyrrolidine-3-carbonitrile]					> 100	> 10000	> 10000	20 to 50	100 to 1000	1000 to 5000	100 to 1000
C[C@@H]1CN(c2nc(-c3cnn(C4CCCCC4)c3)cn3ncc(F)c23)C(=O)[C@]1(C#N)C1CC1 [Example 219, (3R,4S)-1-(6-(1-cyclohexyl-1H-pyrazol-4-yl)-3-fluoropyrazolo[1,5-a]pyrazin-4-yl)-3-cyclopropyl-4-methyl-2-oxopyrrolidine-3-carbonitrile]					50 to 100	100 to 1000	100 to 1000	< 5	< 100	< 100	< 100
C[C@@H]1CN(c2ccnn3cc(-c4ccc5c(cnn5C)c4)cc23)C(=O)[C@]1(C#N)C1CC1 [Example 55, (3R,4S)-3-cyclopropyl-4-methyl-1-(6-(1-methyl-1H-indazol-5-yl)pyrrolo[1,2-b]pyridazin-4-yl)-2-oxopyrrolidine-3-carbonitrile]	< 5	< 100	100 to 1000	100 to 1000	5 to 20	1000 to 5000	100 to 1000				
[2H]C([2H])([2H])n1cc(-c2cn3ncc(F)c3c(N3C[C@@H](C)[C@@](C#N)(C4CC4)C3=O)n2)cn1 [Example 211, (3R,4S)-3-cyclopropyl-1-(3-fluoro-6-(1-(methyl-d3)-1H-pyrazol-4-yl)pyrazolo[1,5-a]pyrazin-4-yl)-4-methyl-2-oxopyrrolidine-3-carbonitrile]	< 5	< 100	100 to 1000	< 100	50 to 100	1000 to 5000	1000 to 5000				
C[C@@H]1CN(c2nc(-c3cnn(C4CC5(COC5)C4)c3)cn3nccc23)C(=O)[C@]1(C#N)C1CC1 [Example 289, (3R,4S)-1-(6-(1-(2-oxaspiro[3.3]heptan-6-yl)-1H-pyrazol-4-yl)pyrazolo[1,5-a]pyrazin-4-yl)-3-cyclopropyl-4-methyl-2-oxopyrrolidine-3-carbonitrile]					5 to 20	< 100	< 100	< 5	< 100	< 100	< 100
C[C@@H]1CN(c2nc(-c3ccnc(F)c3)cn3nccc23)C(=O)[C@]1(C#N)C1CC1 [Example 237, (3R,4S)-3-cyclopropyl-1-(6-(2-fluoropyridin-4-yl)pyrazolo[1,5-a]pyrazin-4-yl)-4-methyl-2-oxopyrrolidine-3-carbonitrile trifluoroacetate]					50 to 100	5000 to 10000	100 to 1000	5 to 20	< 100	100 to 1000	100 to 1000
C[C@@H]1CN(c2ccnn3cc(-c4cnn(C5(CO)CC5)c4)cc23)C(=O)[C@]1(C#N)C1CC1 [Example 322, (3R,4S)-3-cyclopropyl-1-(6-(1-(1-(hydroxymethyl)cyclopropyl)-1H-pyrazol-4-yl)pyrrolo[1,2-b]pyridazin-4-yl)-4-methyl-2-oxopyrrolidine-3-carbonitrile]					50 to 100			< 5	100 to 1000	100 to 1000	< 100
C[C@@H]1OC[C@@H]1n1cc(-c2cn3ncc(F)c3c(N3C[C@@H](C)[C@@](C#N)(C4CC4)C3=O)n2)cn1 (relative stereo) [Example 305, (3R,4S)-3-cyclopropyl-1-(3-fluoro-6-(1-((2S,3S)-2-methyloxetan-3-yl)-1H-pyrazol-4-yl)pyrazolo[1,5-a]pyrazin-4-yl)-4-methyl-2-oxopyrrolidine-3-carbonitrile and (3R,4S)-3-cyclopropyl-1-(3-fluoro-6-(1-((2R,3R)-2-methyloxetan-3-yl)-1H-pyrazol-4-yl)pyrazolo[1,5-a]pyrazin-4-yl)-4-methyl-2-oxopyrrolidine-3-carbonitrile]					> 100			< 5	< 100	< 100	< 100
C[C@@H]1CN(c2ccnn3cc(-n4cc(CC#N)cn4)cc23)C(=O)[C@]1(C#N)C1CC1 [Example 339, (3R,4S)-1-(6-(4-(cyanomethyl)-1H-pyrazol-1-yl)pyrrolo[1,2-b]pyridazin-4-yl)-3-cyclopropyl-4-methyl-2-oxopyrrolidine-3-carbonitrile]					> 100			20 to 50	100 to 1000	100 to 1000	100 to 1000
C[C@@H]1CN(c2nc(-c3cnn(C4COC4)c3)cc3ncsc23)C(=O)[C@]1(C#N)C1CC1 [Example 352, (3R,4S)-3-cyclopropyl-4-methyl-1-(6-(1-(oxetan-3-yl)-1H-pyrazol-4-yl)thiazolo[5,4-c]pyridin-4-yl)-2-oxopyrrolidine-3-carbonitrile]					20 to 50			< 5	< 100	< 100	< 100
Cc1cc(-c2cc(N3C[C@@H](C)[C@@](C#N)(C4CC4)C3=O)c3ccnn3c2)n[nH]1 [Example 318, (3R,4S)-3-cyclopropyl-4-methyl-1-(6-(5-methyl-1H-pyrazol-3-yl)pyrazolo[1,5-a]pyridin-4-yl)-2-oxopyrrolidine-3-carbonitrile]					> 100			5 to 20	100 to 1000	1000 to 5000	100 to 1000
C[C@@H]1CN(c2nc(-c3cnn(CC4(C)COC4)c3)cn3ncc(F)c23)C(=O)[C@]1(C#N)C1CC1 [Example 303, (3R,4S)-3-cyclopropyl-1-(3-fluoro-6-(1-((3-methyloxetan-3-yl)methyl)-1H-pyrazol-4-yl)pyrazolo[1,5-a]pyrazin-4-yl)-4-methyl-2-oxopyrrolidine-3-carbonitrile]					50 to 100			< 5	< 100	< 100	< 100
C[C@@H]1CN(c2ccnn3cc(-c4cnn(CC5(C)COC5)c4)cc23)C(=O)[C@]1(C#N)C1CC1 [Example 325, (3R,4S)-3-cyclopropyl-4-methyl-1-(6-(1-((3-methyloxetan-3-yl)methyl)-1H-pyrazol-4-yl)pyrrolo[1,2-b]pyridazin-4-yl)-2-oxopyrrolidine-3-carbonitrile]					20 to 50			< 5	< 100	< 100	< 100
C[C@@H]1CN(c2ccnn3cc(-c4cnn([C@@H]5COCC(F)(F)C5)c4)cc23)C(=O)[C@]1(C#N)C1CC1 (single isomer, unassigned) [Example 328]					> 100			< 5	< 100	< 100	< 100
